Experimental data published in US20250115598A1 (Anaxis Pharma Pty Ltd, priority 2021, published 2025).

Assays:
[1] = target: human RIPK1 (Homo sapiens (Human), UniProt Q13546); test: KINOMEscan binding assay, human RIPK1; details: Table 21
Summary of the method: (§1)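 In this assay, compounds displace DNA- or phage-tagged kinase from an immobilized ligand, and eluted kinase is quantified by qPCR.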

[2] = target: human RIPK3 (Homo sapiens (Human), UniProt Q9Y572); test: KINOMEscan binding assay, human RIPK3; details: Table 21
Chain of human RIPK3 (Q9Y572 whole entry): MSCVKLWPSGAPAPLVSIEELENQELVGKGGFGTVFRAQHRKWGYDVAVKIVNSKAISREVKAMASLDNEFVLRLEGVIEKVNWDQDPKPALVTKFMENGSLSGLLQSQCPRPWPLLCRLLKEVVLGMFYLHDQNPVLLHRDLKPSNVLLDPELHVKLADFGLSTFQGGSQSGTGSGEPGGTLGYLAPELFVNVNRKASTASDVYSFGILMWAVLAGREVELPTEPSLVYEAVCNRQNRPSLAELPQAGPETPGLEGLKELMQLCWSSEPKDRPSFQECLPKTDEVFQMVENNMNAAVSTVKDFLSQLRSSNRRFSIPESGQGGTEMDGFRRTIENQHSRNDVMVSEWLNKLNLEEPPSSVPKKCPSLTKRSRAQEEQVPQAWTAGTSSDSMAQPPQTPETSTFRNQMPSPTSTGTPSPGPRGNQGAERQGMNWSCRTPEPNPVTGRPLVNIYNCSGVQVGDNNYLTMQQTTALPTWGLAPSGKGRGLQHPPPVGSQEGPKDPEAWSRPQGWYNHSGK
Summary of the method: as §1

Chain of human RIPK1 (Q13546 whole entry): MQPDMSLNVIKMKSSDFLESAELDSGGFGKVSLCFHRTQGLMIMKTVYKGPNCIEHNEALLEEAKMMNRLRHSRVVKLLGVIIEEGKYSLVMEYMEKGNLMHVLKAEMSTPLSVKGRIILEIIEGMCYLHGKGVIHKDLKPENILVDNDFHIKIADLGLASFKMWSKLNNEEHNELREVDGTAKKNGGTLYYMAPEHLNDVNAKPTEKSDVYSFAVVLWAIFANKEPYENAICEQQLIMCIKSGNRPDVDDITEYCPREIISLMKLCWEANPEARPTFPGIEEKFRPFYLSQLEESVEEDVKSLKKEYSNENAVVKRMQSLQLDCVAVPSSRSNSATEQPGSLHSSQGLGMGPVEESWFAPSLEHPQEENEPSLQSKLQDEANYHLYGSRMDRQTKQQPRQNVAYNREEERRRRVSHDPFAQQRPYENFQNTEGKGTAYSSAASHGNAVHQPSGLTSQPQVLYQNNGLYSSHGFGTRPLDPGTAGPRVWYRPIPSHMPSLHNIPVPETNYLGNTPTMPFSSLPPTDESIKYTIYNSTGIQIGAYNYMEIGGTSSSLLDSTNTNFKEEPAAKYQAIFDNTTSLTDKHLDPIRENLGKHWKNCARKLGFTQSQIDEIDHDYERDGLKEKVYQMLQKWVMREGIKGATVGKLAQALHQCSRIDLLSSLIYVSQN

Kd [1] [µM]	Kd [2] [µM]	SMILES
> 10	> 10	COCC(Oc1cc(-c2nn(C)c3c(-c4cnn(C5CCN(C)CC5)c4)cnc(N)c23)ccc1NS(=O)(=O)C(F)F)c1ccc(F)cc1 (stereo not shown) [Compound 139, N-(4-(4-amino-1-methyl-7-(1-(1-methyl-piperidin-4-yl)-1H-pyrazol-4-yl)-1H-pyrazolo[4,3-c]pyridin-3-yl)-2-(1-(4-fluorophenyl)-2-methoxyethoxy)phe-nyl)-1,1-difluoro-methanesulfonamide]
> 10	> 10	C[C@H](Oc1cc(-c2nn(C)c3c(-c4cnn(C5CCOCC5)c4)cnc(N)c23)ccc1NS(=O)(=O)Cc1ccccc1)c1ccc(F)cc1 [Compound 125, (S)-N-(4-(4-amino-1-methyl-7-(1-(tetra-hydro-2H-pyran-4-yl)-1H-pyrazol-4-yl)-1H-pyrazolo[4,3-c]pyridin-3-yl)-2-(1-(4-fluoro-phenyl)eth-oxy)phenyl)-1-phenylmethane-sulfonamide]
> 10	> 10	CCS(=O)(=O)Nc1ccc(-c2nn(C)c3c(NC(C)=O)cnc(N)c23)cc1OCc1ccc(F)cc1 [Compound 2, N-(4-amino-3-(4-(ethylsulfonamido)-3-((4-fluorobenzyl)oxy)phenyl)-1-methyl-1H-pyrazolo[4,3-c]pyridin-7-yl)acetamide]
> 10	> 10	C[C@H](Oc1cc(-c2nn(C)c3c(-c4cnn(C5CCOCC5)c4)cnc(N)c23)ccc1NS(C)(=O)=O)c1ccc(F)cc1 [Compound 119, (S)-N-(4-(4-amino-1-methyl-7-(1-(tetrahydro-2H-pyran-4-yl)-1H-pyrazol-4-yl)-1H-pyrazolo[4,3-c]pyridin-3-yl)-2-(1-(4-fluorophenyl)ethoxy)phe-nyl)methanesulfonamide]
> 10	> 10	C[C@H](Oc1cc(-c2nn(C)c3c(Cc4ccccc4)cnc(N)c23)ccc1NS(=O)(=O)C(F)F)c1ccc(F)cc1 [Compound 34, (S)-N-(4-(4-amino-7-benzyl-1-methyl-1H-pyrazolo[4,3-c]pyridin-3-yl)-2-(1-(4-fluorophenyl)ethoxy)phenyl)-1,1-difluoromethanesulfonamide]
> 10	> 10	C[C@H](Oc1cc(-c2nn(C)c3c(-c4cnn(CC(F)(F)F)c4)cnc(N)c23)ccc1NS(=O)(=O)C(F)F)c1ccc(F)cc1 [Compound 116, (S)-N-(4-(4-amino-1-methyl-7-(1-(2,2,2-trifluoroethyl)-1H-pyrazol-4-yl)-1H-pyrazolo[4,3-c]pyridin-3-yl)-2-(1-(4-fluorophenyl)ethoxy)phenyl)-1,1-difluoromethanesulfonamide]
> 10	> 10	C[C@H](Oc1cc(-c2nn(C)c3c(C#CC4CCN(CC(F)(F)F)CC4)cnc(N)c23)ccc1NS(=O)(=O)C(F)F)c1ccc(F)cc1 [Compound 128, (S)-N-(4-(4-amino-1-methyl-7-((1-(2,2,2-trifluoroethyl)piperidin-4-yl)ethynyl)-1H-pyrazolo[4,3-c]pyridin-3-yl)-2-(1-(4-fluorophenyl)ethoxy)phenyl)-1,1-difluoromethane-sulfonamide]
> 10	> 10	C[C@H](Oc1cc(-c2nn(C)c3c(C4CCN(C)CC4)cnc(N)c23)ccc1NS(=O)(=O)C(F)F)c1ccc(F)cc1 [Compound 42, (S)—N-(4-(4-amino-1-methyl-7-(1-methylpiperidin-4-yl)-1H-pyrazolo[4,3-c]pyridin-3-yl)-2-(1-(4-fluorophenyl)ethoxy)phenyl)-1,1-difluoromethanesulfonamide]
> 10	> 10	C[C@H](Oc1cc(-c2nn(C)c3c(-c4ccc(N5CCOCC5)nc4)cnc(N)c23)ccc1NS(=O)(=O)C(F)F)c1ccc(F)cc1 [Compound 115, (S)-N-(4-(4-amino-1-methyl-7-(6-morpholinopyridin-3-yl)-1H-pyrazolo[4,3-c]pyridin-3-yl)-2-(1-(4-fluorophenyl)ethoxy)phenyl)-1,1-difluoromethanesulfonamide]
> 10	> 10	C[C@H](Oc1cc(-c2cnn3ccnc(N)c23)ccc1NS(=O)(=O)C(F)F)c1ccc(F)cc1 [Compound 22, (S)—N-(4-(4-aminopyrazolo[1,5-a]pyrazin-3-yl)-2-(1-(4-fluorophenyl)ethoxy)phenyl)-1,1-difluoromethanesulfonamide]
> 10	> 10	CCS(=O)(=O)Nc1ccc(-c2ncn3ccnc(N)c23)cc1OCc1ccc(F)cc1 [Compound 63, N-(4-(8-Aminoimidazo[1,5-a]pyrazin-1-yl)-2-((4-fluorophenyl)methoxy)phenyl) ethane-1-sulfonamide]
> 10	> 10	C[C@H](Oc1cc(-c2nn(C)c3c(-c4cnn(C5CCOCC5)c4)cnc(N)c23)ccc1NS(=O)(=O)CC(F)(F)F)c1ccc(F)cc1 [Compound 44, (S)—N-(4-(4-amino-1-methyl-7-(1-(tetrahydro-2H-pyran-4-yl)-1H-pyrazol-4-yl)-1H-pyrazolo[4,3-c]pyridin-3-yl)-2-(1-(4-fluorophenyl)ethoxy)phenyl)-2,2,2-trifluoroethane-1-sulfonamide]
> 10	> 10	Cc1c(-c2cnc(N)c3c(-c4ccc(NS(=O)(=O)C(F)F)c(O[C@@H](C)c5ccc(F)cc5)c4)nn(C)c23)cnn1C1CCN(C)C(C)(C)C1 (stereo partly drawn) [Compound 157, N-(4-(4-amino-1-methyl-7-(5-methyl-1-(1,2,2-trimethylpiperidin-4-yl)-1H-pyrazol-4-yl)-1H-pyrazolo[4,3-c]pyridin-3-yl)-2-((S)-1-(4-fluorophenyl)ethoxy)phenyl)-1,1-difluoromethanesulfonamide]
> 10	> 10	C[C@H](Oc1cc(-c2nn(C)c3c(-c4ccc5c(cnn5C)c4)cnc(N)c23)ccc1NS(=O)(=O)C(F)F)c1ccc(F)cc1 [Compound 166, (S)-N-(4-(4-amino-1-methyl-7-(1-methyl-1H-indazol-5-yl)-1H-pyrazolo[4,3-c]pyridin-3-yl)-2-(1-(4-fluorophenyl)ethoxy)phenyl)-1,1-difluoromethanesulfonamide]
> 10	> 10	C[C@H](Oc1cc(-c2nn(C)c3c(N4CCOCC4)cnc(N)c23)ccc1NS(=O)(=O)C(F)F)c1ccc(F)cc1 [Compound 141, N-{4-[4-amino-1-methyl-7-(morpholin-4-yl)-1H-pyrazolo[4,3-c]pyridin-3-yl]-2-[(1S)-1-(4-fluorophenyl)ethoxy]phenyl}-1,1-difluoromethanesulfonamide]
> 10	> 10	C[C@H](Oc1cc(-c2nn(C)c3c(-c4cnn(CC5CCCN5)c4)cnc(N)c23)ccc1NS(=O)(=O)C(F)F)c1ccc(F)cc1 (stereo partly drawn) [Compound 88, N-(4-(4-amino-1-methyl-7-(1-(pyrrolidin-2-ylmethyl)-1H-pyrazol-4-yl)-1H-pyrazolo[4,3-c]pyridin-3-yl)-2-((S)-1-(4-fluorophenyl)ethoxy)phenyl)-1,1-difluoromethane-sulfonamide]
> 10	> 10	CC1CNCC(n2cc(-c3cnc(N)c4c(-c5ccc(NS(=O)(=O)C(F)F)c(O[C@@H](C)c6ccc(F)cc6)c5)nn(C)c34)cn2)C1 (stereo partly drawn) [Compound 95, N-(4-(4-amino-1-methyl-7-(1-(5-methylpiperidin-3-yl)-1H-pyrazol-4-yl)-1H-pyrazolo[4,3-c]pyridin-3-yl)-2-((S)-1-(4-fluorophenyl)ethoxy)phenyl)-1,1-difluoromethane-sulfonamide]
> 10	> 10	CCS(=O)(=O)Nc1ccc(-c2cnn3ccnc(N)c23)cc1OCc1ccc(F)cc1 [Compound 64, N-(4-(4-Aminopyrazolo[1,5-a]pyrazin-3-yl)-2-((4-fluorophenyl)methoxy)phenyl)ethane-1-sulfonamide]
> 10	> 10	COC[C@@H](Oc1cc(-c2nn(C)c3c(-c4cnn(C5CCOCC5)c4)cnc(N)c23)ccc1NS(=O)(=O)C(F)F)c1ccc(F)cc1 [Compound 112, (S)—N-(4-(4-amino-1-methyl-7-(1-(tetrahydro-2H-pyran-4-yl)-1H-pyrazol-4-yl)-1H-pyrazolo[4,3-c]pyridin-3-yl)-2-(1-(4-fluorophenyl)-2-methoxyethoxy)phenyl)-1,1-difluoromethanesulfonamide]
> 10	> 10	Nc1ncc(-c2cnn(C3CCOCC3)c2)c2occ(-c3ccc(NS(=O)(=O)CC(F)(F)F)c(OCc4ccc(F)cc4)c3)c12 [Compound 11, N-(4-(4-amino-7-(1-(tetrahydro-2H-pyran-4-yl)-1H-pyrazol-4-yl)furo[3,2-c]pyridin-3-yl)-2-((4-fluorobenzyl)oxy)phenyl)-2,2,2-trifluoroethane-1-sulfonamide]
> 10	> 10	C[C@H](Oc1cc(-c2nn(C)c3c(-c4cnn(C5CCOCC5)c4)cnc(N)c23)ccc1NS(=O)(=O)C(F)F)c1ccccc1F [Compound 118, (S)-N-(4-(4-amino-1-methyl-7-(1-(tetrahydro-2H-pyran-4-yl)-1H-pyrazol-4-yl)-1H-pyrazolo[4,3-c]pyridin-3-yl)-2-(1-(2-fluoro-phenyl)ethoxy)phenyl)-1,1-difluoromethane-sulfonamide]
> 10	> 10	Nc1n[nH]c2ccnc(-c3ccc(NS(=O)(=O)C(F)F)c(OCc4ccc(F)cc4)c3)c12 [Compound 68, N-(4-(3-amino-1H-pyrazolo[4,3-c]pyridin-4-yl)-2-((4-fluorophenyl)methoxy)phenyl)-1,1-difluoromethanesulfonamide]
> 10	> 10	C[C@H](Oc1cc(-c2nn(C)c3c(-c4ccn(C)c4)cnc(N)c23)ccc1NS(=O)(=O)C(F)F)c1ccc(F)cc1 [Compound 126, (S)-N-(4-(4-amino-1-methyl-7-(1-methyl-1H-pyrrol-3-yl)-1H-pyrazolo[4,3-c]pyridin-3-yl)-2-(1-(4-fluorophenyl)ethoxy)phenyl)-1,1-difluoromethanesulfonamide]
